Values quoted from earlier work as cited in paper PMC6376154 (International Journal for Parasitology: Drugs and Drug …, 2019).
Like-named read-outs stand apart in the source and are kept apart here.

Test system: P. falciparum 3D7 asexual blood stage
Settings: cited from earlier work
[1] = MMV Malaria Box data sheet (supplement mmc2.xls), ref MMV data sheet
[2] = MMV Malaria Box data sheet (supplement mmc2.xls), ref MMV data sheet, read-out: EC50_nM
[3] = value(s) per source (GSK, GNF, StJude), separated by semicolon, ref ChEMBL-NTD, read-out: CHEMBL EC50
[4] = MMV Malaria Box data sheet, ref MMV data sheets
[5] = MMV Malaria Box data sheet, ref MMV data sheets, read-out: EC50_nM
[6] = source GNF, ref ChEMBL_NTD, read-out: CHEMBL EC50
[7] = MMV Malaria Box sheet, ref MMV data sheets
[8] = MMV Malaria Box sheet, ref MMV data sheets, read-out: EC50_nM
[9] = ChEMBL-NTD value per source (GNF, GSK, StJude), several values in a cell follow the order of the sources, read-out: CHEMBL EC50
[10] = source GSK, ref ChEMBL_NTD, read-out: CHEMBL EC50

## O=C(NCc1ccco1)C1CCN(S(=O)(=O)c2ccc(Cl)cc2)CC1 [MMV006188]
[1]
  percent_inh @ 5 uM: 94%
[2]
  EC50: 890 nM
[3]
  EC50: 514 nM

## Cc1cc(NCCN2CCCCC2)c2ccc3ccccc3c2n1 [MMV006203]
[4]
  percent_inh @ 5 uM: 99%
[5]
  EC50: 300 nM
[6]
  EC50: 44.1 nM

## CCOC(=O)c1cnc2c(C)cccc2c1Nc1ccc(C(C)=O)cc1 [MMV006250]
[7]
  percent_inh @ 5 uM: 94%
[8]
  EC50: 314 nM
[6]
  EC50: 119 nM

## CCc1c(C)c(=N)c2ccccc2n1C [MMV006278]
[4]
  percent_inh @ 5 uM: 76%
[5]
  EC50: 378 nM
[6]
  EC50: 701 nM

## CCN(CC)CCNc1ccnc2cc3ccccc3cc12 [MMV006303]
[9]
  EC50: 28.6 nM

## CN(C)c1ccc(C=Cc2nc(=O)c3ccccc3o2)cc1 [MMV006309]
[4]
  percent_inh @ 5 uM: 96%
[5]
  EC50: 51.5 nM
[10]
  EC50: 44.6 nM

## Cc1cc(Nc2cccc(F)c2)nc(NCc2ccccc2)n1 [MMV006319]
[7]
  percent_inh @ 2 uM: 97%
[8]
  EC50: 662 nM
[6]
  EC50: 72.2 nM

## O=C1c2ccccc2C2=Nc3ccccc3SC(c3cccc(F)c3)C12 (centres unmarked) [MMV006389]
[7]
  percent_inh @ 5 uM: 94%
[8]
  EC50: 414 nM
[6]
  EC50: 86.7 nM

## COc1cc(OC)c(N(C)C(=O)c2cc3c(s2)-c2ccccc2S(=O)(=O)C3)cc1Cl [MMV006427]
[4]
  percent_inh @ 5 uM: 100%
[5]
  EC50: 78.2 nM
[6]
  EC50: 113 nM

## Cc1cc(NC(=O)C2c3ccccc3C(=O)N(CC(C)C)C2c2cccs2)no1 (centres unmarked) [MMV006429]
[4]
  percent_inh @ 5 uM: 100%
[5]
  EC50: 32.8 nM
[6]
  EC50: 85.6 nM

## CCOC(=O)c1ccc2nc(-c3ccccc3)cc(O)c2c1 [MMV006457]
[4]
  percent_inh @ 5 uM: 96%
[5]
  EC50: 118 nM
[6]
  EC50: 549 nM

## c1ccc2c(NCCc3c[nH]c4ccccc34)c3ccccc3nc2c1 [MMV006513]
[7]
  percent_inh @ 5 uM: 97%
[8]
  EC50: 304 nM
[6]
  EC50: 86 nM

## CCOc1ccc2nc(C)cc(Nc3ccc(Br)cc3)c2c1 [MMV006522]
[9]
  EC50: 114 nM

## CCN(CC)CCNc1ncnc2c1[nH]c1ccc(Br)cc12 [MMV006545]
[2]
  EC50: 707 nM
[3]
  EC50: 288 nM

## Cc1cc(C)c2c(c1)OCN(Cc1ccccc1Cl)C2 [MMV006558]
[4]
  percent_inh @ 5 uM: 98%
[5]
  EC50: 268 nM
[6]
  EC50: 192 nM

## Clc1ccc2[nH]c3c(NCCCN4CCOCC4)ncnc3c2c1 [MMV006587]
[2]
  EC50: 700 nM
[3]
  EC50: 109 nM

## CCOC(=O)C1=CN(C)C=C(C(=O)OCC)C1c1cc(Br)c(OCC)c(OC)c1 [MMV006656]
[9]
  EC50: 913 nM

## CN(C)CCNc1cc(-c2ccccc2)nc2ccccc12 [MMV006704]
[7]
  percent_inh @ 2 uM: 92%
[8]
  EC50: 4000 nM
[6]
  EC50: 692 nM

## Cc1cc(N2CCN(C3CCCC3)CC2)n2c(nc3ccccc32)c1C#N [MMV006706]
[2]
  EC50: 683 nM
[3]
  EC50: 743 nM

## Cc1cc(=O)oc2c1ccc1oc(C(=O)c3ccccc3)c(C)c12 [MMV006753]
[7]
  percent_inh @ 5 uM: 94%
[6]
  EC50: 441 nM

## CCOc1c(Br)cc(C2C(C(=O)OC)=CN(C)C=C2C(=O)OC)cc1OC [MMV006764]
[9]
  EC50: 292 nM

## COc1cc2cc(C(=O)Nc3ccccc3)c(N)nc2cc1OC [MMV006767]
[1]
  percent_inh @ 5 uM: 99%

## CC(C)CCNCC(O)Cn1c2ccccc2c2ccccc21 (centres unmarked) [MMV006787]
[7]
  percent_inh @ 5 uM: 97%
[8]
  EC50: 473 nM
[6]
  EC50: 201 nM

## CCCCc1c(C)nc2c(OC)cccc2c1O [MMV006820]
[7]
  percent_inh @ 2 uM: 92%
[8]
  EC50: 4000 nM
[6]
  EC50: 1690 nM

## COc1ccc(Nc2cc(C)nc(NCc3ccccc3)n2)cc1 [MMV006825]
[9]
  EC50: 151 nM

## c1ccc2cc3c(Nc4ccc(N5CCOCC5)cc4)ccnc3cc2c1 [MMV006861]
[4]
  percent_inh @ 5 uM: 97%
[5]
  EC50: 251 nM
[6]
  EC50: 672 nM

## CCOC(=O)c1cnc2ccc(Cl)cc2c1NCCCN(C)C [MMV006882]
[7]
  percent_inh @ 5 uM: 98%
[8]
  EC50: 1190 nM
[6]
  EC50: 826 nM

## C=CCc1c(C)nc2ccccc2c1O [MMV006913]
[1]
  percent_inh @ 5 uM: 85%
[2]
  EC50: 1290 nM
[3]
  EC50: 707 nM

## Cc1ccc(-c2cc3nc4c(c(O)n3n2)CCCC4)cc1 [MMV006937]
[4]
  percent_inh @ 5 uM: 73%
[5]
  EC50: 396 nM
[6]
  EC50: 1600 nM

## O=C(Nc1ccc(-c2nc3cc(NC(=O)c4ccc(Cl)cc4)ccc3[nH]2)cc1)c1ccc(Cl)cc1 [MMV006962]
1.25 uM, solubility issue at 5 uM
  % inh. At 1.25 uM: Solubility issue at 5 uM. % inh. At 1.25 uM is 48
[9]
  EC50: 993 nM

## CCOc1ccc2nc(C)cc(Nc3ccc(N(C)C)cc3)c2c1 [MMV007020]
[9]
  EC50: 344 nM

## Cc1ccc2c(C)nc(Nc3nc(C)cc(-c4ccccc4)n3)nc2c1 [MMV007041]
[9]
  EC50: 975 nM

## CCOc1ccc(CN2CCN(CC(O)COc3ccc(OCC(O)CN4CCN(Cc5ccc(OCC)cc5)CC4)cc3)CC2)cc1 (centres unmarked) [MMV007092]
[9]
  EC50: 1370 nM

## c1ccc(C2=Nc3ccccc3N=C(c3ccccc3)c3ccccc32)cc1 [MMV007113]
[9]
  EC50: 678 nM

## CCOC(=O)c1cnc2ccc(CC)cc2c1O [MMV007116]
[5]
  EC50: 351 nM
[6]
  EC50: 716 nM

## OC1=C2C(=Nc3ccccc3SC2c2ccc(Br)cc2)c2ccccc21 (centres unmarked) [MMV007127]
[7]
  percent_inh @ 5 uM: 97%
[8]
  EC50: 567 nM
[6]
  EC50: 337 nM

## Cc1ccc(N2C3c4ccccc4N(S(=O)(=O)c4ccc(C)cc4)C2c2ccccc2N3S(=O)(=O)c2ccc(C)cc2)cc1 [MMV007160]
[4]
  percent_inh @ 5 uM: 97%
[5]
  EC50: 24.8 nM
[6]
  EC50: 720 nM

## Cc1cc(Nc2ccc(OCc3ccccc3)cc2)nc2cc(O)ccc12 [MMV007181]
[9]
  EC50: 73.6 nM

## COc1ccccc1N1C(=N)SC(=Cc2ccc(OCc3ccccc3F)cc2)C1=O [MMV007199]
[7]
  percent_inh @ 5 uM: 95%
[8]
  EC50: 478 nM

## COc1ccc(OC)c(C2C3=C(CC(C)(C)CC3=O)N(c3ccc(Cl)c(Cl)c3)C3=C2C(=O)CC(C)(C)C3)c1 [MMV007208]
[7]
  percent_inh @ 5 uM: 90%
[8]
  EC50: 912 nM
[6]
  EC50: 430 nM

## Cc1cccc(N2C(=O)C3C(C2=O)C2(c4ccccc4)C(=O)C3(c3ccccc3)C(c3ccc4c(c3)OCO4)=C2c2ccc3c(c2)OCO3)c1 (centres unmarked) [MMV007228]
[9]
  EC50: 1070 nM

## Cc1ccc(F)cc1NC(=O)c1cc(Cl)ccc1Nc1ccccc1 [MMV007275]
[9]
  EC50: 191 nM

## CCOc1ccc(Nc2ccnc3cc(Cl)ccc23)cc1 [MMV007285]
[9]
  EC50: 956 nM

## CCc1ccc(Nc2cc(C)nc3nc(C)nn23)cc1 [MMV007374]
[1]
  percent_inh @ 2 uM: 81%
[2]
  EC50: 4000 nM
[3]
  EC50: 574 nM

## COc1ccc(-c2nc3cc(Cc4ccc5[nH]c(-c6ccc(OC)cc6)nc5c4)ccc3[nH]2)cc1 [MMV007384]
[4]
  percent_inh @ 5 uM: 98%
[5]
  EC50: 176 nM
[6]
  EC50: 234 nM

## Cc1ccccc1OCCSc1nc2ccc(NC(=O)c3cccs3)cc2s1 [MMV007396]
[9]
  EC50: 497 nM

## O=C(NCc1ccco1)C1CCN(S(=O)(=O)c2ccc(Br)cc2)CC1 [MMV007430]
[1]
  percent_inh @ 5 uM: 93%
[2]
  EC50: 939 nM
[3]
  EC50: 362 nM

## COc1cc2c3cc1Oc1c(OC)c(OC)cc4c1C(Cc1ccc(O)c(c1)Oc1ccc(cc1)CC3N(C)CC2)N(C)CC4 (centres unmarked) [MMV007474]
[9]
  EC50: 997 nM

## COc1ccc(CCNC(=O)c2cc(S(=O)(=O)N3CC(C)CC(C)C3)ccc2Sc2ccc(F)cc2)cc1OC (centres unmarked) [MMV007557]
[7]
  percent_inh @ 5 uM: 97%
[8]
  EC50: 632 nM
[6]
  EC50: 1050 nM

## Cc1ccc(Cn2c(N3CCC(C(=O)NCc4cccs4)CC3)nc3ccccc32)cc1 [MMV007564]
[4]
  percent_inh @ 5 uM: 73%
[5]
  EC50: 947 nM
[6]
  EC50: 529 nM
[10]
  EC50: 748 nM

## Cc1ccc(CSCc2ccc(C(=O)NC3CC3)o2)cc1 [MMV007571]
[1]
  percent_inh @ 5 uM: 97%
[2]
  EC50: 635 nM
[3]
  EC50: 418 nM

## O=C(Nc1ccc(C23CC4CC(CC(c5ccccc5)(C4)C2)C3)cc1)c1cccs1 [MMV007574]
[7]
  percent_inh @ 5 uM: 96%
[8]
  EC50: 826 nM
[6]
  EC50: 645 nM

## Cc1ccccc1OCCSc1nc2ccc(NC(=O)c3ccccc3)cc2s1 [MMV007577]
[7]
  percent_inh @ 5 uM: 93%
[8]
  EC50: 1120 nM
[6]
  EC50: 9760 nM

## COc1ccc(C(=O)C(CCC(CNC(C)(C)C)C(=O)c2ccc(OC)cc2)CNC(C)(C)C)cc1 (centres unmarked) [MMV007591]
[9]
  EC50: 1120 nM

## CC(=O)NCCc1nc2ccccc2n1Cc1ccc(C(C)C)cc1 [MMV007617]
[1]
  percent_inh @ 5 uM: 97%
[2]
  EC50: 1790 nM
[3]
  EC50: 764 nM

## Cc1ccc(C)c(-c2csc(Nc3ccc(C)c(C)c3)n2)c1 [MMV007654]
[9]
  EC50: 493 nM

## CCCCCCOC(=O)C1=C(C)NC(=O)NC1c1ccccc1F (centres unmarked) [MMV007686]
[4]
  percent_inh @ 5 uM: 95%
[5]
  EC50: 106 nM
[6]
  EC50: 6760 nM

## COc1ccc(C(C)=O)cc1N1C(=O)C2C(C1=O)C1(c3ccccc3)C(=O)C2(c2ccccc2)C(c2ccc(C)cc2)=C1c1ccc(C)cc1 (centres unmarked) [MMV007695]
[4]
  percent_inh @ 5 uM: 96%
[5]
  EC50: 179 nM
[6]
  EC50: 2460 nM

## CCCCc1c(CCC)c(=N)c2ccccc2n1C [MMV007764]
[9]
  EC50: 311 nM

## CCOc1ccccc1NC(=O)CN1CCN(C(=O)c2ccco2)CC1 [MMV007791]
[7]
  percent_inh @ 5 uM: 83%
[6]
  EC50: 5460 nM

## COc1nc(Nc2ccc(C(C)C)cc2)nc(OC)n1 [MMV007808]
[1]
  percent_inh @ 5 uM: 88%
[2]
  EC50: 1140 nM
[3]
  EC50: 677 nM

## COc1ccc2c(c1)OC(O)(C(F)(F)C(F)(F)F)CC2=O (centres unmarked) [MMV007839]
[5]
  EC50: 283 nM
[6]
  EC50: 442 nM

## COc1ccc2nc(C)cc(Nc3ccc(Cl)cc3)c2c1 [MMV007875]
[7]
  percent_inh @ 2 uM: 95%
[8]
  EC50: 2000 nM
[6]
  EC50: 1230 nM
[10]
  EC50: 946 nM

## CCCCN(CCCC)S(=O)(=O)c1ccc(NC(=O)c2ccco2)cc1 [MMV007881]
[7]
  percent_inh @ 5 uM: 78%
[6]
  EC50: 1420 nM
